# BindingDB's records for doi:10.1021/acs.jmedchem.9b00607 (National Institute On Drug Abuse-Intramural Research Program, 2019)
# Target: D(3) dopamine receptor (Homo sapiens, UniProt P35462)
# Assay: Agonist activity at human D3 receptor expressed in CHO cells assessed as stimulation of […] mitogenesis
# Sequence of D(3) dopamine receptor (P35462 as listed by the source): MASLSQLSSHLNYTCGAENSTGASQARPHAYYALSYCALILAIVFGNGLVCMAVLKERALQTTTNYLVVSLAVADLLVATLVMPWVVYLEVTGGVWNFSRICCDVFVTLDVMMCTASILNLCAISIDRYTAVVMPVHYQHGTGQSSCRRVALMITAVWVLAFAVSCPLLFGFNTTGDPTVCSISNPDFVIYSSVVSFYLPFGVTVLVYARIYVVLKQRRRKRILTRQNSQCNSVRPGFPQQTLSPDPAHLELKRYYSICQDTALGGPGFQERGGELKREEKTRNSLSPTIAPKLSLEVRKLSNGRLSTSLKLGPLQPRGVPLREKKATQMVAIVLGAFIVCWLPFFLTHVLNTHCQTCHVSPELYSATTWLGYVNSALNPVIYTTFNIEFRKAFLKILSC
row,EC50 [µM],Structure (SMILES)
1,> 6.8,CCc1cc(Cl)c(OC)c(N2CCN(C[C@@H](O)CCNC(=O)c3cc4ccccc4[nH]3)CC2)c1
2,> 3.2,CCc1cc(Cl)c(OC)c(N2CCN(C[C@H](O)CCNC(=O)c3cc4ccccc4[nH]3)CC2)c1
